In PubChem BioAssay AID330 (DTP/NCI, 2004):
“And” between values parts separate entries of the source, which are not always exact repeats. Identical values can stand only once. Toxic doses and inconclusive results are not listed. How the source made its calls: active means survival T/C of 150% or more; inactive means T/C below 125% in these data.

Tested on: P388 leukemia ip, CD2F1 mice, survival T/C
Experiment: NCI In Vivo Anticancer Drug Screen. Data for tumor model P388 Leukemia (intraperitoneal) in CD2F1 (CDF1) mice
Conditions: endpoint: median survival time, higher = longer survival
Method in brief: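 Mice carrying the transplanted tumor received test compound or vehicle. Survival was recorded in each group, and the value is the treated-group measurement divided by that of the vehicle-treated control group.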

[1] = dose: 60.0 mg/kg/injection, schedule: Q01DX005 (ip), vehicle: Klucel (hydroxypropylcellulose) (HPC)
[2] = dose: 120.0 mg/kg/injection, schedule: Q01DX005 (ip), vehicle: Klucel (hydroxypropylcellulose) (HPC)
[3] = dose: 240.0 mg/kg/injection, schedule: Q01DX005 (ip), vehicle: Klucel (hydroxypropylcellulose) (HPC)
[4] = dose: 50.0 mg/kg/injection, schedule: Q01DX009 (ip), vehicle: saline
[5] = dose: 50.0 mg/kg/injection, schedule: Q01DX009 (ip), vehicle: saline with Tween-80
[6] = dose: 100.0 mg/kg/injection, schedule: Q01DX009 (ip), vehicle: saline with Tween-80
[7] = dose: 200.0 mg/kg/injection, schedule: Q01DX009 (ip), vehicle: saline with Tween-80
[8] = dose: 50.0 mg/kg/injection, schedule: Q01DX005 (ip), vehicle: saline
[9] = dose: 100.0 mg/kg/injection, schedule: Q01DX005 (ip), vehicle: saline
[10] = dose: 200.0 mg/kg/injection, schedule: Q01DX005 (ip), vehicle: saline
[11] = dose: 25.0 mg/kg/injection, schedule: Q01DX005 (ip), vehicle: saline with Tween-80
[12] = dose: 50.0 mg/kg/injection, schedule: Q01DX005 (ip), vehicle: saline with Tween-80
[13] = dose: 25.0 mg/kg/injection, schedule: Q01DX005 (ip), vehicle: saline
[14] = dose: 50.0 mg/kg/injection, schedule: Q01DX005 (ip), vehicle: Klucel (hydroxypropylcellulose) (HPC)
[15] = dose: 100.0 mg/kg/injection, schedule: Q01DX005 (ip), vehicle: Klucel (hydroxypropylcellulose) (HPC)
[16] = dose: 200.0 mg/kg/injection, schedule: Q01DX005 (ip), vehicle: Klucel (hydroxypropylcellulose) (HPC)

Measured: T/C

O=c1[nH]c2cc(Cl)ccc2nc1/C=C(\O)c1cccc([N+](=O)[O-])c1
inactive: [1] 102 % of control | [2] 97 % of control | [3] 101 % of control

CC(=O)C(C)OP(=O)(O)OCC[N+](C)(C)C (configuration not stated)
inactive: dose: 12.5 mg/kg/injection, schedule: Q01DX009 (ip), vehicle: saline 100 % of control | dose: 25.0 mg/kg/injection, schedule: Q01DX009 (ip), vehicle: saline 104 % of control | [4] 114 % of control

CCOC(=S)c1cccc(C(=S)OCC)c1
inactive: [5] 104 % of control | [6] 100 % of control | [7] 103 % of control

C1CN(C[C@H]2CO[C@H](CN3CCOCC3)CO2)CCO1
inactive: [8] 91 % of control | [9] 106 % of control | [10] 110 % of control

Clc1ccc(CN2COc3c(cc(Cl)c4cccnc34)C2)c(Cl)c1
inactive: dose: 100.0 mg/kg/injection, schedule: Q04DX003 (ip), vehicle: Klucel (hydroxypropylcellulose) (HPC) 102 % of control | dose: 200.0 mg/kg/injection, schedule: Q04DX003 (ip), vehicle: Klucel (hydroxypropylcellulose) (HPC) 87 % of control | dose: 400.0 mg/kg/injection, schedule: Q04DX003 (ip), vehicle: Klucel (hydroxypropylcellulose) (HPC) 87 % of control

C[CH2][Ge]([CH2]C)[CH2]/C(C)=C(/C)[CH2][Ge]([CH2]C)[CH2]C
inactive: [5] 100 % of control | [6] 108 % of control

O=C(O)c1cocc1C(=O)N1Cc2cc3ccccc3nc2C1
inactive: dose: 8.0 mg/kg/injection, schedule: Q01DX009 (ip), vehicle: saline with Tween-80 94 % of control | dose: 16.0 mg/kg/injection, schedule: Q01DX009 (ip), vehicle: saline with Tween-80 92 % of control | dose: 32.0 mg/kg/injection, schedule: Q01DX009 (ip), vehicle: saline with Tween-80 94 % of control | dose: 64.0 mg/kg/injection, schedule: Q01DX009 (ip), vehicle: saline with Tween-80 108 % of control | dose: 128.0 mg/kg/injection, schedule: Q01DX009 (ip), vehicle: saline with Tween-80 103 % of control

O=C1CN(Cc2ccc(Cl)cc2)CC(=O)N2CCCN12
inactive: dose: 12.5 mg/kg/injection, schedule: Q01DX005 (ip), vehicle: saline with Tween-80 96 % of control | [11] 100 % of control | [12] 100 % of control

COc1ccc(CCN(C=O)CCc2ccc(OC)c(OC)c2)cc1OC
inactive: dose: 25.0 mg/kg/injection, schedule: Q01DX009 (ip), vehicle: other 97 % of control | dose: 100.0 mg/kg/injection, schedule: Q01DX009 (ip), vehicle: other 109 % of control | dose: 200.0 mg/kg/injection, schedule: Q01DX009 (ip), vehicle: other 101 % of control | dose: 400.0 mg/kg/injection, schedule: Q01DX009 (ip), vehicle: other 103 % of control

O=c1c2cc3ccccc3cc2c(=O)n2n1CC(O)C(Br)C2 (configuration not stated)
inactive: dose: 25.0 mg/kg/injection, schedule: Q01DX009 (ip), vehicle: DMSO 101 % of control | dose: 50.0 mg/kg/injection, schedule: Q01DX009 (ip), vehicle: DMSO 105 % of control | dose: 100.0 mg/kg/injection, schedule: Q01DX009 (ip), vehicle: DMSO 105 % of control

CC(=O)Nc1ccsc1
inactive: [13] 102 % of control | [8] 104 % of control | [9] 109 % of control

Cc1ccc2c(c1)C(C)(C)C(O)CC2(C)C (configuration not stated)
inactive: [14] 98 % of control | [15] 106 % of control | [16] 109 % of control

COc1ccc(S(=O)(=O)NN=C(C(=O)O)C(=O)O)cc1
inactive: [11] 102 % of control | [12] 102 % of control | dose: 100.0 mg/kg/injection, schedule: Q01DX005 (ip), vehicle: saline with Tween-80 95 % of control | dose: 200.0 mg/kg/injection, schedule: Q01DX005 (ip), vehicle: saline with Tween-80 109 % of control

CC(=O)N1CCC(/C(C)=N/O)CC1
inactive: [8] 107 % of control | [9] 101 % of control | [10] 106 % of control

[O-][n+]1c2ccccc2nc2ccccc21
inactive: [14] 115 % of control | [15] 110 % of control | [16] 100 % of control

Cc1ccc(S(=O)(=O)N(CCCc2c(C)nc(N)[nH]c2=O)Cc2ccc([N+](=O)[O-])cc2)cc1
inactive: [1] 88 % of control | [2] 86 % of control | [3] 87 % of control

N#CN(Cc1ccccc1)Cc1ccccc1.[Cl][Sn]([c]1ccccc1)([c]1ccccc1)[c]1ccccc1
inactive: dose: 3.12 mg/kg/injection, schedule: Q01DX005 (ip), vehicle: saline with Tween-80 98 % of control | dose: 6.25 mg/kg/injection, schedule: Q01DX005 (ip), vehicle: saline with Tween-80 95 % of control

Cc1ccc(-c2cn3nc(-c4ccc5c(c4)OCO5)sc3n2)cc1
inactive: dose: 60.0 mg/kg/injection, schedule: Q01DX005 (ip), vehicle: saline with Tween-80 92 % of control | dose: 120.0 mg/kg/injection, schedule: Q01DX005 (ip), vehicle: saline with Tween-80 99 % of control and 89 % of control | dose: 240.0 mg/kg/injection, schedule: Q01DX005 (ip), vehicle: saline with Tween-80 87 % of control

COc1ccc(-c2cc(-c3ccccc3)c(-c3ccccc3)nn2)cc1CN1CCOCC1
inactive: [5] 99 % of control | [6] 100 % of control | [7] 95 % of control

COC1=C(OC)C(=O)C(SCCCCCCC2CCCCC2)=CC1=O
inactive: dose: 16.0 mg/kg/injection, schedule: Q01DX009 (ip), vehicle: Klucel (hydroxypropylcellulose) (HPC) 96 % of control | dose: 32.0 mg/kg/injection, schedule: Q01DX009 (ip), vehicle: Klucel (hydroxypropylcellulose) (HPC) 92 % of control

CCOC(=O)c1cnc(NCCCCCCCCNc2ncc(C(=O)OCC)c(=O)[nH]2)[nH]c1=O
inactive: [4] 103 % of control | dose: 100.0 mg/kg/injection, schedule: Q01DX009 (ip), vehicle: saline 102 % of control | dose: 200.0 mg/kg/injection, schedule: Q01DX009 (ip), vehicle: saline 90 % of control and 97 % of control

SC1(S)CCCN(Cc2ccccc2)C1
inactive: [13] 105 % of control | [8] 108 % of control | [9] 103 % of control | [10] 105 % of control

Cn1cccc1[N+](=O)[O-]
inactive: dose: 12.5 mg/kg/injection, schedule: Q01DX009 (ip), vehicle: saline with Tween-80 100 % of control | dose: 25.0 mg/kg/injection, schedule: Q01DX009 (ip), vehicle: saline with Tween-80 101 % of control | [5] 100 % of control and 104 % of control | [6] 101 % of control | [7] 108 % of control

C=CCN(CC=C)C1C(O)CCOC1OC (configuration not stated)
inactive: dose: 60.0 mg/kg/injection, schedule: Q01DX005 (ip), vehicle: saline 109 % of control and 101 % of control | dose: 120.0 mg/kg/injection, schedule: Q01DX005 (ip), vehicle: saline 107 % of control and 103 % of control | dose: 240.0 mg/kg/injection, schedule: Q01DX005 (ip), vehicle: saline 109 % of control and 102 % of control

C=C(C)CCOS(=O)(=O)c1ccc(C)cc1
inactive: [5] 102 % of control | [6] 110 % of control | [7] 90 % of control

CC(C)C1=CC23CCC4C(C)(C(N)=O)CCCC4(C)C2CC1C1C(=O)OC(=O)C13 (configuration not stated)
inactive: dose: 100.0 mg/kg/injection, schedule: Q01DX001 (ip), vehicle: saline with Tween-80 91 % of control

CC(C)C(O)C1CCOS1(=O)=O (configuration not stated)
inactive: dose: 100.0 mg/kg/injection, schedule: Q04DX003 (ip), vehicle: saline 95 % of control | dose: 200.0 mg/kg/injection, schedule: Q04DX003 (ip), vehicle: saline 101 % of control
